Results taken from patent US9073965B2, “Adiponectin receptor agonists and methods of use” (TEMPLE UNIVERSITY—OF THE COMMONWEALTH SYSTEM OF HIGHER …, priority 2011, dated 2015).
Non-standard residues stand in square brackets, D forms with d. Residues, ends and D or L forms follow the SMILES beside them. Nva = CCC[C@H](N)C(=O)O; βAla = NCCC(=O)O

Tests used:
[1] = system: MCF-7 breast cancer cells
Procedure: The MCF-7 breast cancer cell line was obtained from ATCC (Manassas, Va.) and routinely grown in DMEM:F12 plus 5% calf serum (Cellgro Mediatech, Manassas, Va.) at 37° C., 5% CO2. For screening experiments, MCF-7 cells were plated in 24-well plates at the concentration of 30,000 cells/well. After 12 h of culture in the growth medium, the cells were synchronized in serum-free medium (SFM) (DMEM:F12 supplemented with 0.42 g/mL bovine serum albumin, 1 mM FeSO4 and 2 mM L-glutamine) for 24 h and then shifted back to the full growth medium containing either gAd (Phoenix Secretomics, Burlingame, Calif.) at 50 ng/mL, individual peptides, or no test compounds for 24 h. At conclusion of proliferation assays, the cells were counted under the microscope with trypan-blue exclusion. Each experiment was performed in triplicate and repeated at least three times.

[2] = system: MDA-MB-231 breast cancer cells; experiment: Cell growth experiments, cell counting; format: cell-based; details: MDA-MB-231 cells
Procedure: (§1) Biological activity of the peptides was first assessed using MCF-7 breast cancer cells that express AdipoR1. Arditi J D, Venihaki M, Karalis K P, Chrousos G P Horm Metab Res 2007, 39(1):9-13. The MCF-7 breast cancer cell line was obtained from ATCC (Manassas, Va.) and routinely grown in DMEM:F12 plus 5% calf serum (Cellgro Mediatech, Manassas, Va.) at 37° C., 5% CO2. For screening experiments, MCF-7 cells were plated in 24-well plates at the concentration of 30,000 cells/well. After 12 h of culture in the growth medium, the cells were synchronized in serum-free medium (SFM) (DMEM:F12 supplemented with […] bovine serum albumin, 1 mM FeSO4 and 2 mM L-glutamine) for 24 h and then shifted back to the full growth medium containing either gAd (Phoenix Secretomics, Burlingame, Calif.) at 50 ng/mL, individual peptides, or no test compounds for 24 h. At conclusion of proliferation assays, the cells were counted under the microscope with trypan-blue exclusion. Each experiment was performed in triplicate and repeated at least three times. ADP 25-β-AlaNH2, ADP 91-β-AlaNH2, ADP 157-β-AlaNH2, ADP 223-β-AlaNH2, ADP 289-β-AlaNH2 and ADP 355-β-AlaNH2 were solubilized at 65° C. for 30 min and were further purified by RP-HPLC and screened together with the individually synthesized adiponectin peptides at the exact concentration of 50 ng/mL.
(§2) The effects of the selected peptide ADP 355-NH2 on cell proliferation were tested in breast cancer cell lines (MCF-7, MDA-MB-231) and in glioblastoma cells (LN18), all obtained from ATCC and routinely cultured as described previously. Otvos L, Jr., et al. European J Cancer 2011, 47(10):1578-1584. Riolfi M, et al. Brain Pathol 2010, 20(2):481-489. Bartucci M, et al. Cancer Res 2001, 61(18):6747-6754. The peptide was tested at 10 pM-100 μM concentrations under conditions described above under peptide screening.

LN18 glioblastoma cells = experiment: Cell growth experiments, cell counting; format: cell-based
Procedure: as §1, §2

female CBA/J mice = experiment: In vivo toxicity, bolus ip; details: for Kidney weight / Kidney weight relative to total weight (%) / Liver weight / Liver weight relative to total weight (%) / Spleen weight: day 5
From the text: On day 5 the mice were killed by CO2 inhalation and the potential peptide elimination organs, the livers, spleens and kidneys were removed and weighed.

Akt = experiment: Signaling analysis by Western blot: Akt; format: cell-based
Procedure: (§3) The analysis was done using MCF-7 and MDA-MB-231 breast cancer cells and in LN18 glioblastoma cells. The cells at 70-80% confluence were shifted to SFM for 24 h, then SFM was removed, the cultures were washed 2× with PBS, placed in normal growth medium for 1 h, and then treated with ADP 355-NH2 at 100 nM (MCF-7 cells) or 10 μM (MDA-MB-231 and LN 18 cells) concentration for 0-60 min, while gAd at 50 ng/mL was applied for 60 min only. Untreated cells were used as negative control. After the treatment, cells were lysed as previously described and 100 μg of proteins were analyzed by Western blot for the expression of phosphorylated (p) and total forms of several signaling molecules. Bartella V, et al. Cancer Res 2008, 68(12):4919-4927. Garofalo C, et al. Clin Cancer Res 2004, 10(10):6466-6475. The following primary antibodies (Abs) from Cell Signaling (Danvers, Mass.) were used: 1) pAMPK alpha (T172) D79.5E rabbit mAb 1: 750; 2) total AMPK alpha antibody rabbit mAb 1:1000 in; 3) p44/42 MAPK (T202/Y204) rabbit mAb 1:1000; 4) total 44/42 MAP kinase antibody rabbit mAb 1:1000; 5) pStat3 (Y705) D3A7 rabbit mAb 1: 500; 6) total Stat3 79D7 rabbit mAb 1:2000; 7) pAkt (Ser 473) rabbit mAb 1:1000; 8) total Akt rabbit mAb 1:1000; 9) AdipoR1 rabbit purified anti-serum 1:500 (Phoenix Secretomics). Protein loading was verified by evaluating the expression of either a constitutive enzyme glyceraldehyde-3-phosphate dehydrogenase (GAPDH) using 6C51 mAbs 1:1000 (Santa Cruz Biotechnology, CA, USA) or alpha-actin using the actin I-19 goat polyclonal Ab (Santa Cruz) 1: 200. The following secondary Abs (Santa Cruz) were used 1) donkey anti-goat IgG-HRP; 2) goat anti-mouse IgG-HRP; 3) goat anti-rabbit IgG-HRP, all applied at 1:1000 dilution.

ERK1/2 = experiment: Signaling analysis by Western blot: ERK1/2 phosphorylation; format: cell-based
Procedure: as §3, with “Protein loading was verified by evaluating the expression of either a constitutive enzyme glyceraldehyde-3-phosphate dehydrogenase (GAPDH) using 6C51 mAbs 1:1000 (Santa Cruz Biotechnology, CA, USA) or alpha-actin using the actin I-19 goat polyclonal Ab (Santa Cruz) 1: 200. The following secondary Abs (Santa Cruz) were used 1) donkey anti-goat IgG-HRP; 2) goat anti-mouse IgG-HRP; 3) goat anti-rabbit IgG-HRP, all applied at 1:1000 dilution.” left out

[3] = Peptide stability in whole mouse blood; format: in vitro ADME; details: after 30 min at 37° C., mass spectroscopy
Procedure: (§4) Sixty μg of ADP 355-NH2 were dissolved in 100 μL water, and 10 μL aliquots were mixed with 100 μL of freshly drawn mouse blood. After 30 min of incubation at 37° C. the cells were centrifuged at 10,000×g. Fifty μL serum was mixed with 50 μL phosphate buffered saline pH 6.8 (PBS), and the serum proteins were precipitated by addition of 45 μL aqueous 15% trichloroacetic acid (TCA) for 10 min at 4° C. After centrifugation at 12,000×g the supernatant was neutralized with 0.1 M aqueous sodium hydroxide and 0.5 μL of this solution was mixed with 0.5 μL α-cyano-4-hydroxycinnamic acid (4 mg/mL in 60% aqueous acetonitrile containing 0.1% TFA) as matrix on a sample plate. Analysis was performed on a MALDI time-of-flight tandem mass spectrometer (MALDITOF/TOF-MS, 4700 proteomic analyzer, Applied Biosystems, Weiterstadt, Germany). Additionally, the neutralized supernatant was loaded on a Jupiter C18 RP-HPLC column (4.6 mm internal diameter, 150 mm length, 5 μm particle size, 30 nm pore size; Phenomenex) that had previously been calibrated with known amounts of peptide ADP 355-NH2 dissolved in PBS. Absorbance was measured at 214 nm. Peptide ADP 355-NH2 was incubated at 37° C. with 25% aqueous mouse serum at a final concentration of 150 μg/mL. After 0, 15, 30, 60, 120, and 240 min 95 μL aliquots were mixed with 25 μL 15% aqueous TCA and were incubated for 10 min at 4° C. […]

[4] = Peptide stability in mouse serum; format: in vitro ADME; details: 25% aqueous mouse serum, calculated from degradation rate in 25% aqueous serum, 37° C., data not shown
Procedure: as §4

STAT3 = experiment: Signaling analysis by Western blot: STAT3 phosphorylation; format: cell-based; details: for STAT3 phosphorylation: 10 μM
Procedure: as §3

AMPK = experiment: Signaling analysis by Western blot: AMPK phosphorylation; format: cell-based
Procedure: as §3

[5] = LN 18 cells, compared with 1 μM
[6] = four days after ip administration, vs untreated
[7] = MDA-MB-231 cells, 10 μM, 0-60 min

SMILES: CC[C@H](C)[C@H](NC(=O)[C@@H](N)CC(N)=O)C(=O)N1CCC[C@H]1C(=O)NCC(=O)N[C@@H](CC(C)C)C(=O)N[C@@H](Cc1ccc(O)cc1)C(=O)N[C@@H](Cc1ccc(O)cc1)C(=O)N[C@@H](Cc1ccccc1)C(=O)N[C@@H](C)C(=O)N[C@@H](Cc1ccc(O)cc1)C(=O)NCCC(N)=O [ADP 25-β-AlaNH2, Asn-Ile-Pro-Gly-Leu-Tyr-Tyr-Phe-Ala-Tyr-β-AlaNH2] (H-NIPGLYYFAY[βAla]-NH2; N-terminus assumed)
- biological activity in cancer cell growth inhibition assays ([1]; 50 ng/mL): fully active
- Cytostatic Activity of Original Peptide vs. gAd (% Increase) ([1]; MCF-7 cells, 50 ng/mL, relative to 50 ng/mL gAd (baseline)): 11%

SMILES: CCC[C@H](NC(=O)[C@@H]1CCCN1C(=O)[C@@H](NC(=O)[C@H](N)CC(N)=O)[C@@H](C)CC)C(=O)N[C@@H](CC(C)C)C(=O)N[C@@H](Cc1ccc(O)cc1)C(=O)N[C@H](CO)C(=O)N[C@@H](Cc1ccccc1)C(=O)N[C@@H](C)C(=O)N[C@H](CO)C(N)=O [ADP 355-NH2, D-Asn-Ile-Pro-Nva-Leu-Tyr-D-Ser-Phe-Ala-D-Ser-NH2] (H-[dN]IP[Nva]LY[dS]FA[dS]-NH2)
- cytostatic effect at maximal effective doses compared with gAd at 50 ng/mL [2]: greater cytostatic effects
- effect on normal cell growth ([2]; 10 pM-100 μM): restricted normal cell growth in a dose-dependent manner
- growth inhibition at 10 μM ([2]; compared with 1 μM): further activity increase
- growth inhibition at 100 μM ([2]; compared with 1 μM): less inhibitory
- cytostatic effect at maximal effective doses compared with gAd at 50 ng/mL (LN18 glioblastoma cells; LN18 cells): greater cytostatic effects
- effect on normal cell growth (LN18 glioblastoma cells; LN18 cells, 10 pM-100 μM): restricted normal cell growth in a dose-dependent manner
- growth inhibition at 10 μM (LN18 glioblastoma cells; [5]): further activity increase
- growth inhibition at 100 μM (LN18 glioblastoma cells; [5]): less inhibitory
- Kidney weight (female CBA/J mice; 5 mg/kg bolus ip): 0.30 g
- Kidney weight relative to total weight (%) (female CBA/J mice; 5 mg/kg bolus ip): 1.6%
- Liver weight (female CBA/J mice; 5 mg/kg bolus ip): 1.02 g
- Liver weight relative to total weight (%) (female CBA/J mice; 5 mg/kg bolus ip): 5.4%
- Spleen weight (female CBA/J mice; 5 mg/kg bolus ip): 0.07 g
- Kidney weight (female CBA/J mice; 10 mg/kg bolus ip): 0.29 g
- Kidney weight relative to total weight (%) (female CBA/J mice; 10 mg/kg bolus ip): 1.6%
- Liver weight (female CBA/J mice; 10 mg/kg bolus ip): 1.09 g
- Liver weight relative to total weight (%) (female CBA/J mice; 10 mg/kg bolus ip): 5.9%
- Spleen weight (female CBA/J mice; 10 mg/kg bolus ip): 0.06 g
- Kidney weight (female CBA/J mice; 25 mg/kg bolus ip): 0.35 g
- Kidney weight relative to total weight (%) (female CBA/J mice; 25 mg/kg bolus ip): 1.7%
- Liver weight (female CBA/J mice; 25 mg/kg bolus ip): 1.24 g
- Liver weight relative to total weight (%) (female CBA/J mice; 25 mg/kg bolus ip): 5.9%
- Spleen weight (female CBA/J mice; 25 mg/kg bolus ip): 0.07 g
- Kidney weight (female CBA/J mice; 50 mg/kg bolus ip): 0.31 g
- Kidney weight relative to total weight (%) (female CBA/J mice; 50 mg/kg bolus ip): 1.7%
- Liver weight (female CBA/J mice; 50 mg/kg bolus ip): 1.07 g
- Liver weight relative to total weight (%) (female CBA/J mice; 50 mg/kg bolus ip): 6.2%
- Spleen weight (female CBA/J mice; 50 mg/kg bolus ip): 0.07 g
- spleen size compared with untreated control mice (female CBA/J mice; four days after ip administration): identical in size
- increase of kidney size relative to total body weight (female CBA/J mice; [6]): 2%
- increase of liver size relative to total body weight (female CBA/J mice; [6]): 8%
- signs of systemic toxicity (tremor, head tilt, reduced activity, squinting) (female CBA/J mice; up to 50 mg/kg ip bolus, observed for 4 days): no signs of systemic toxicity
- total and phosphorylated levels of Akt (Akt; LN18 cells, 10 μM, at 15-60 min): down-regulated
- activation of Akt (Akt; MCF-7 cells, 100 nM, 0-60 min): did not affect
- Akt activation (Akt; [7]): did not affect
- ERK1/2 phosphorylation (ERK1/2; MCF-7 cells, 100 nM, at 60 min): decreased
- ERK1/2 pathway (ERK1/2; MDA-MB-231 cells, 10 μM, at 30 and 60 min): significantly inhibited
- concentration up to which the growth inhibitory activity was maintained ([1]; MCF-7 cells): up to 10 μM
- cytostatic effect at maximal effective doses compared with gAd at 50 ng/mL ([1]; MCF-7 cells): greater cytostatic effects
- peptide concentration at which the best growth inhibition was achieved ([1]; MCF-7 cells): 100 nM
- effect on normal cell growth ([1]; MCF-7 cells, 10 pM-100 μM): restricted normal cell growth in a dose-dependent manner
- growth inhibition at 10 pM-10 nM ([1]; MCF-7 cells, compared with 100 nM): less effective
- stability in whole mouse blood [3]: without noticeable degradation
- half-life at 150 μg/mL [4]: 1.25 h
- STAT3 phosphorylation (STAT3; LN18 cells, at 15-60 min): decreased
- phosphorylation of STAT3 (STAT3; MCF-7 cells, 100 nM, at 15-60 min): increased
- STAT3 phosphorylation (STAT3; MDA-MB-231 cells, at 15 and 30 min): transiently increased
- AMPK modulation (AMPK; LN18 cells, 10 μM, 0-60 min): did not modulate
- phosphorylation of AMPK (AMPK; MCF-7 cells, 100 nM, at 15 and 30 min): increased
- AMPK activation (AMPK; [7]): did not affect
